Measurements as given in patent US6384051B1, “Method of treating or inhibiting colonic polyps” (American Cyanamid Company, priority 2000, dated 2002).

Tested on: not given
Assay: not given
Settings: not given

Q: Which melting point does the source give for `COc1cccc2c(Nc3cccc(N(C)C)c3)c(C#N)cnc12` [Example 277, 4-(3-Dimethylamino-phenylamino)-8-methoxy-quinoline-3-carbonitrile] here?
A: The melting point was 222 to 225 °C.

Q: For `N#Cc1cnc2cc3c(cc2c1Nc1cccc(Br)c1)OCO3` [Example 40, 8-[(3-Bromophenyl)amino]-[1,3]-dioxolo[4,5-g]quinoline-7-carbonitrile], which melting point is on record?
A: Its melting point is 201 to 205 °C.

Q: Which melting point does the source give for `COc1cc2ncc(C#N)c(Nc3ccc(C(F)(F)F)cc3)c2cc1OC` [Example 376, 6,7-Dimethoxy-4-(4-trifluoromethyl-phenylamino)-quinoline-3-carbonitrile] here?
A: Its melting point is 116 to 118 °C.

Q: For `COc1cccc2c(Nc3cccc(Br)c3)c(C#N)cnc12` [Example 274, 4-[(3-Bromophenyl)amino]-8-methoxy-3-quinolinecarbonitrile], which melting point is on record?
A: The melting point was 210 to 212 °C.

Q: Which melting point does the source give for `COCC#CC(=O)Nc1ccc2ncc(C#N)c(Nc3cccc(Br)c3)c2c1` [Example 330, N-[4-[(3-Bromophenyl)amino]-3-cyano-6-quinolinyl]-4-methoxy-2-butynamide] here?
A: Its melting point is 197 °C (dec.).

Q: With `COc1cc2ncc(C#N)c(Nc3cc(Cl)c(O)c(Cl)c3)c2cc1OC` [Example 286, 4-(3,5-Dichloro-4-hydroxy-phenylamino)-6,7-dimethoxy-quinoline-3-carbonitrile] as the molecule, how does the melting point read?
A: Its melting point is > 250 °C.

Q: With `COc1cc2c(Nc3ccc(C)c(O)c3)c(C#N)cnc2c(OC)c1OC` [Example 233, 4-(3-Hydroxy-4-methyl-phenylamino)-6,7,8-trimethoxy-quinoline-3-carbonitrile] as the molecule, how does the melting point read?
A: Its melting point is 200 °C (dec.).

Q: Which melting point does the source give for `COc1cccc2c(Nc3ccc(Cl)cc3F)c(C#N)cnc12` [Example 275, 4-(4-Chloro-2-fluoro-phenylamino)-8-methoxy-quinoline-3-carbonitrile] here?
A: Its melting point is 127 °C (dec.).

Q: For `COc1cc2ncc(C#N)c(Nc3cc(Cl)ccc3O)c2cc1OC` [Example 290, 4-(5-Chloro-2-hydroxy-phenylamino)-6,7-dimethoxy-quinoline-3-carbonitrile], which melting point is on record?
A: Its melting point is > 250 °C.

Q: With `COc1cc2c(Nc3cccc(Br)c3)c(C#N)cnc2c(OC)c1OC` [Example 241, 4-(3-Bromo-phenylamino)-6,7,8-trimethoxy-quinoline-3-carbonitrile] as the molecule, how does the melting point read?
A: Its melting point is 211 to 213 °C.

Q: For `COc1cc2ncc(C#N)c(Nc3cccc(C(F)(F)F)c3)c2cc1OC` [Example 42, 4-[(3-Trifluoromethylphenyl)amino]-6,7-dimethoxy-3-quinolinecarbonitrile], which melting point is on record?
A: The melting point was 190 to 193 °C.

Q: With `COc1ccc(OC)c2c(Nc3cccc(Br)c3)c(C#N)cnc12` [Example 240, 4-(3-Bromo-phenylamino)-5,8-dimethoxy-quinoline-3-carbonitrile] as the molecule, how does the melting point read?
A: Its melting point is 72 to 74 °C.

Q: For `CCN(CC)CC#CC(=O)Nc1ccc2ncc(C#N)c(Nc3cccc(Br)c3)c2c1` [Example 187, N-[4-[(3-Bromophenyl)amino]-3-cyano-6-quinolinyl]-4-diethylamino-2-butynamide], which melting point is on record?
A: The melting point was 133 to 135 °C.

Q: Which melting point does the source give for `CN(C)CC#CC(=O)Nc1ccc2ncc(C#N)c(Nc3ccc(F)c(Br)c3)c2c1` [Example 197, N-[4-[(3-Bromo-4-fluorophenyl)amino]-3-cyano-6-quinolinyl]-4-dimethylamino-2-butynamide] here?
A: Its melting point is 228 to 231 °C.

Q: With `COc1cc2ncc(C#N)c(Nc3ccc(O)cc3Cl)c2cc1OC` [Example 296, 4-(2-Chloro-4-hydroxy-phenylamino)-6,7-dimethoxy-quinoline-3-carbonitrile] as the molecule, how does the melting point read?
A: The melting point was > 250 °C.

Q: With `N#Cc1cnc2ccc(NC(=O)C#CCO)cc2c1Nc1cccc(Br)c1` [Example 57, N-[4-[(3-Bromophenyl)amino]-3-cyano-6-quinolinyl]-4-hydroxy-2-butynamide] as the molecule, how does the melting point read?
A: Its melting point is 253 to 254 °C (dec.).

Q: With `COc1cc2ncc(C#N)c(Nc3ccc(C)c(Cl)c3)c2cc1OC` [Example 370, 4-(3-Chloro-4-methyl-phenylamino)-6,7-dimethoxy-quinoline-3-carbonitrile] as the molecule, how does the melting point read?
A: Its melting point is > 250 °C.

Q: For `COc1cc2ncc(C#N)c(Nc3cccc(O)c3C)c2cc1OC` [Example 245, 4-(3-Hydroxy-2-methyl-phenylamino)-6,7-dimethoxy-quinoline-3-carbonitrile], which melting point is on record?
A: Its melting point is 255 to 257 °C.

Q: With `CCc1ccc(Nc2c(C#N)cnc3cc(OC)c(OC)cc23)cc1` [Example 335, 4-(4-Ethylphenylamino)-6,7-dimethoxyquinoline-3-carbonitrile] as the molecule, how does the melting point read?
A: The melting point was 248 to 250 °C.

Q: For `COc1cc2ncc(C#N)c(Nc3ccc(O)c(Cl)c3)c2cc1OC` [Example 249, 4-(3-Chloro-4-hydroxy-phenylamino)-6,7-dimethoxy-quinoline-3-carbonitrile], which melting point is on record?
A: Its melting point is 230 to 232 °C.

Q: With `COc1ccc(OC)c2c(Nc3ccc(C)c(O)c3)c(C#N)cnc12` [Example 239, 4-(3-Hydroxy-4-methyl-phenylamino)-5,8-dimethoxy-quinoline-3-carbonitrile] as the molecule, how does the melting point read?
A: Its melting point is 240 to 242 °C.

Q: For `COc1cccc2c(Nc3c(F)cc(F)cc3F)c(C#N)cnc12` [Example 280, 8-Methoxy-4-(2,4,6-trifluoro-phenylamino)-quinoline-3-carbonitrile], which melting point is on record?
A: Its melting point is 297 °C (dec.).

Q: With `COc1cc2ncc(C#N)c(Nc3c(C)cccc3O)c2cc1OC` [Example 246, 4-(2-Hydroxy-6-methyl-phenylamino)-6,7-dimethoxy-quinoline-3-carbonitrile] as the molecule, how does the melting point read?
A: The melting point was 245 to 247 °C.

Q: With `COc1ccc(Cl)cc1Nc1c(C#N)cnc2cc(OC)c(OC)cc12` [Example 372, 4-(5-Chloro-2-methoxyphenylamino)-6,7-dimethoxy-quinoline-3-carbonitrile] as the molecule, how does the melting point read?
A: The melting point was 200 to 202 °C.

Q: For `CCN1CCN(CC#CC(=O)Nc2ccc3ncc(C#N)c(Nc4cccc(Br)c4)c3c2)CC1` [Example 188, N-[4-[(3-Bromophenyl)amino]-3-cyano-6-quinolinyl]-4-(N-ethylpiperazino)-2-butynamide], which melting point is on record?
A: The melting point was 161 °C (dec.).

Q: With `COc1ccc2c(Nc3cc(O)c(Cl)cc3F)c(C#N)cnc2c1` [Example 282, 4-(4-Chloro-2-fluoro-5-hydroxy-phenylamino)-7-methoxy-quinoline-3-carbonitrile] as the molecule, how does the melting point read?
A: The melting point was 240 °C (dec.).

Tested on: Min mouse (C57BL/6J-Min/+)
Assay: in vivo test procedure emulating FAP: Min mouse (C57BL/6J-Min/+), compound blended with AIN-93G chow for 60 days, intestinal polyps counted on day 61
Settings: not given
Description: The polyps that develop in Min mice express EGFR and have activated COX-2.
On day 61, the animals were euthanized with CO2 inhalation, and the entire intestinal tract from stomach to anus was removed. The intestinal tract was injected with Bouins fixative, and allowed to fix for several days. The intestinal tracts were then opened and the number of polyps counted.

Q: Which “reducing polyp numbers in mice” value does the source give for `CCOc1cc2ncc(C#N)c(Nc3ccc(F)c(Cl)c3)c2cc1NC(=O)C=CCN(C)C` [Example 399, 4-Dimethylamino-but-2-enoic acid [4-(3-chloro-4-fluoro-phenylamino)-3-cyano-7-ethoxy-quinolin-6-yl]-amide] here?
A: The value was “effective in significantly reducing polyp numbers”.

Tested on: min mouse
Assay: not given
Settings: background statement on NSAID's; cited from earlier work

Q: Which “intestinal polyp formulation in min mice (NSAID's)” value does the source give for `CC1=C(CC(=O)O)c2cc(F)ccc2/C1=C\c1ccc([S+](C)[O-])cc1` (centres unmarked) [sulindac] here?
A: Its value is “can reduce (but not eradicate) intestinal polyp formulation”.

Q: Which “intestinal polyp formulation in min mice (NSAID's)” value does the source give for `CCc1cccc2c3c([nH]c12)C(CC)(CC(=O)O)OCC3` (centres unmarked) [etodoloc] here?
A: Its value is “can reduce (but not eradicate) intestinal polyp formulation”.
